Converted amounts (≈) assume the structure as drawn. Read-outs that look alike come from different tables or passages of the source.
Columns and labels:
Assay type in all cases: cell-based
[1] = tested on: HT-29 (colon cancer); assay: MTT cytotoxicity assay, HT-29; conditions: for IC50: Homo sapiens, HT-29, MTT, 72 h, mean ± SD of three replicates; for IC50 / SI (selectivity index) HT-29: isolated compounds; for antiproliferative/cytotoxic activity against HT-29 (in words): MTT assay; for SI (selectivity index) HT-29: IC50 HUVEC / IC50 HT-29
Experimental: (§1) The human cell lines MCF-7 (breast cancer), Ca Ski (cervical cancer), and HT-29 (colon cancer) were cultured as monolayer in RPMI 1640 growth media. HUVEC (human umbilical vein endothelial cells) and PC-3 (prostate cancer) cells were cultured in DMEM. All cells were purchased from the American Tissue Culture Collection (ATCC, USA) except for human umbilical vein endothelial cells (HUVEC) which were obtained from ScienCell Research Laboratories (Carlsbad, CA). All the media were supplemented with 10% v/v foetal bovine serum (FBS), 100 μg/mL penicillin/streptomycin, and 50 μg/mL amphotericin B. The cells were cultured in a 5% CO2 incubator at 37°C.
(§2) Cell viability was investigated using 3-(4, 5-dimethylthiazol-2-yl)-2, 5-diphenyltetrazolium bromide (MTT) assay. Cells were detached from the […] tissue culture flask when it achieved 80% confluency. The detached cells were pellet by centrifugation (1,000 rpm; 5 minutes). Cells (3.0 × 10^4 cells/mL) were seeded onto a 96-well microtiter plate (Nunc). The cells were incubated at 37°C CO2 incubator for 24 h to give adherent cells. The test compounds (1–100 μg/mL) were added onto the 96-well microtiter plate containing adherent cells. The untreated cells were incubated in 10% media containing 0.5% DMSO (without addition of any test compounds/extracts). This mixture was regarded as the negative control whereas doxorubicin as the positive control. The plates were incubated for 72 h at 37°C in a 5% CO2 incubator. After 72 h, the media were removed and 100 μL of fresh medium and 20 μL of MTT (Sigma, filter sterile, 5 mg/mL) were added to each well and further incubated for 4 hours (37°C) after which the media were substituted with 150 μL DMSO. The 96-well microtiter plates were then agitated at room temperature onto an incubator shaker to dissolve the formazan crystals. The absorbance (A) of the content of the plates was measured at 540 nm using a microplate reader. The percentage of inhibition of each test sample was calculated according to the following formula: Percentage of inhibition (%) = (A control − A sample)/A control × 100%. The average of three replicates was then obtained. The IC50 for each extract was extrapolated from the graphs of the percentage inhibition versus concentration of test agents. Cytotoxicity of each test agent is expressed as IC50 value. The IC50 value is the concentration of test agents that cause 50% inhibition or cell death, averaged from the three experiments. The selectivity index (SI) was also calculated as described by using the ratio between IC50 of the extract or compounds on normal cell lines (HUVEC) and IC50 of the tested extract or compounds on cancerous cell lines. Selectivity index (SI) values equal or greater than three were considered to have a high selectivity towards cancerous cells. An SI value denotes the selectivity of the sample to the tested cell lines.

[2] = tested on: MCF-7 (breast cancer); assay: cells; conditions: for IC50: Homo sapiens, MCF7, MTT, 72 h, mean ± SD of three replicates; for IC50 / SI (selectivity index) MCF-7: isolated compounds; for SI (selectivity index) MCF-7: IC50 HUVEC / IC50 MCF-7
Experimental: as §1, §2

[3] = tested on: Ca Ski (cervical cancer); assay: cells; conditions: for IC50: Homo sapiens, Ca-Ski, MTT, 72 h, mean ± SD of three replicates; for IC50 / SI (selectivity index) Ca Ski: isolated compounds; for SI (selectivity index) Ca Ski: IC50 HUVEC / IC50 Ca Ski
Experimental: as §1, §2

[4] = tested on: HUVEC (human umbilical vein endothelial cells); assay: cells; conditions: for IC50: Homo sapiens, HUVEC, isolated compounds, MTT, 72 h, normal cells
Experimental: as §1, §2

[5] = tested on: PC-3 (prostate cancer); assay: MTT cytotoxicity assay, PC-3; conditions: for IC50: Homo sapiens, MTT, 72 h, mean ± SD of three replicates; for IC50 / SI (selectivity index) PC-3: isolated compounds; for antiproliferative/cytotoxic activity against PC-3 (in words): MTT assay; for SI (selectivity index) PC-3: IC50 HUVEC / IC50 PC-3
Experimental: as §1, §2

Row | Molecule | IC50 [1] [µg/mL] | antiproliferative/cytotoxic activity against HT-29 (in words) [1] | SI (selectivity index) HT-29 [1] | IC50 [2] [µg/mL] | antiproliferative/cytotoxic activity against MCF-7 (in words) ([2]; MTT assay) | SI (selectivity index) MCF-7 [2] | IC50 [3] [µg/mL] | antiproliferative/cytotoxic activity against Ca Ski (in words) ([3]; MTT assay) | SI (selectivity index) Ca Ski [3] | IC50 [4] [µg/mL] | IC50 [5] [µg/mL] | antiproliferative/cytotoxic activity against PC-3 (in words) [5] | SI (selectivity index) PC-3 [5] | antiproliferative/cytotoxic activity against MCF-7 (in words) [2] | antiproliferative/cytotoxic activity against Ca Ski (in words) [3] | toxicity towards normal cells HUVEC (in words) [4]
1 | C=C1CC[C@H]2C(C)(C)CCC[C@]2(C)[C@H]1C/C=C(/C=O)CC=O [Compound 1, labda-8(17),12 diene-15,16 dial] | 21.5 ± 3.1 (≈ 71.1 µM) | moderate inhibitory activity | 2.1 | 16.3 ± 0.2 (≈ 53.9 µM) | moderate cytotoxicity | 2.8 | 14.5 ± 0.1 (≈ 47.9 µM) | moderate cytotoxicity | 3.1 | 45.3 ± 1.9 (≈ 150 µM) | 26.3 ± 2.4 (≈ 87 µM) | moderate inhibitory activity | 1.7 |  |  | 
2 | CC(C)=C1CC(=O)[C@@H](C)CC/C=C(\C)CC1=O [Compound 2, dehydrocurdione] | 22.7 ± 2.4 (≈ 96.9 µM) | moderate inhibitory activity | 1.1 | 33 ± 1.1 (≈ 141 µM) |  | 0.7 | 21.7 ± 1.1 (≈ 92.6 µM) |  | 1.1 | 24 ± 2.1 (≈ 102 µM) | 19.1 ± 2.8 (≈ 81.5 µM) | moderate inhibitory activity | 1.3 |  |  | 
3 | CC1=CC2C(=C(C)C)C(=O)C=C(C)C2CC1 (stereo not shown) [Compound 4, comosone II] |  |  |  | > 100 |  |  | 76 ± 1.2 (≈ 351 µM) |  |  |  |  |  |  |  |  | 
4 | CC1=CC(=O)C(=C(C)C)C[C@H]2[C@H]1CC[C@]2(C)O [Compound 6, procurcumenol] | 15.5 ± 2.3 (≈ 66.1 µM) | good cytotoxic effect | 1.1 | 16.1 ± 2.2 (≈ 68.7 µM) |  | 1.0 | 62.4 ± 0.3 (≈ 266 µM) |  | 0.3 | 16.3 ± 1 (≈ 69.6 µM) | 13.3 ± 1.7 (≈ 56.8 µM) | good cytotoxic effect | 1.2 |  |  | 
5 | CC(C)=C1C/C=C(\C)CC/C=C(\C)CC1=O [Compound 7, germacrone] | 42.9 ± 4.1 (≈ 196 µM) |  | 1.7 | 59.1 ± 2.9 (≈ 271 µM) |  | 1.2 | 39.3 ± 1.2 (≈ 180 µM) |  | 1.9 | 73.7 ± 0.3 (≈ 338 µM) | 55.2 ± 4.9 (≈ 253 µM) |  | 1.3 |  |  | 
6 | CC1=CC2(O)OC3(CC2=C(C)C)C(C)CCC13 (stereo not shown) [Compound 10, 9-isopropylidene-2,6-dimethyl-11-oxatricyclo[6.2.1.0^1,5]undec-6-en-8-ol] |  |  |  | > 100 |  | < 0.7 | > 100 |  | < 0.7 | 71.7 ± 6.1 (≈ 306 µM) |  |  |  |  |  | 
7 | C/C1=C\Cc2c(C)coc2C/C(C)=C/CC1 [Compound 11, furanodiene] | 47.2 ± 4.4 (≈ 218 µM) |  | 0.9 | 36.5 ± 2.6 (≈ 169 µM) |  | 1.1 |  |  |  | 40.9 ± 2.6 (≈ 189 µM) | 39.5 ± 4.5 (≈ 183 µM) |  | 1.0 |  |  | 
8 | CC1=CCCC2(C)OC2CC(=C(C)C)C(=O)C1 (stereo not shown) [Compound 12, germacrone-4,5-epoxide] | 39.6 ± 4.6 (≈ 169 µM) |  | 1.2 | 37.2 ± 4 (≈ 159 µM) |  | 1.3 |  |  |  | 48.4 ± 4.7 (≈ 207 µM) | 43.9 ± 7.2 (≈ 187 µM) |  | 1.1 |  |  | 
9 | C=C1CC[C@H]2C(C)(C)CCC[C@]2(C)[C@H]1C/C=C(/C=O)CC(OC)OC [Compound 13, calcaratarin A] | 48.3 ± 5.1 (≈ 139 µM) |  | 1.0 | 62.5 ± 4.8 (≈ 179 µM) |  | 0.8 |  |  |  | 47.3 ± 4.2 (≈ 136 µM) | 41.7 ± 3.4 (≈ 120 µM) |  | 1.1 |  |  | 
10 | C=C1CC(=O)C(=C(C)C)C[C@H]2[C@H]1CC[C@]2(C)O [Compound 14, isoprocurcumenol] | 51.6 ± 3.9 (≈ 220 µM) |  | 0.9 | 58.8 ± 4.2 (≈ 251 µM) |  | 0.8 |  |  |  | 45.1 ± 3 (≈ 192 µM) | 37.4 ± 4.5 (≈ 160 µM) |  | 1.2 |  |  | 
11 | CC(C)=C1C/C=C(\C)CC[C@H]2O[C@@]2(C)CC1=O [Compound 15, germacrone-1,10-epoxide] | 72.8 ± 8.3 (≈ 311 µM) |  | 0.8 | 61.2 ± 5.8 (≈ 261 µM) |  | 0.9 |  |  |  | 55.5 ± 1.6 (≈ 237 µM) | 53.2 ± 4.9 (≈ 227 µM) |  | 1.0 |  |  | 
12 | C=C(C)[C@@H]1CC[C@H](C)[C@]12CC(=C(C)C)C(=O)O2 [Compound 17, curcumanolide A] | 21.3 ± 3.2 (≈ 90.9 µM) | moderate inhibitory activity | 1.0 | 29.8 ± 3.1 (≈ 127 µM) |  | 0.7 |  |  |  | 21.7 ± 7 (≈ 92.6 µM) | 18.8 ± 2.4 (≈ 80.2 µM) | moderate inhibitory activity | 1.2 |  |  | 
13 | C=C(C)C(=O)C[C@]12OC(=O)C=C(C)[C@@H]1CC[C@@H]2C [Compound 18, curcuzedoalide] | 58.2 ± 3.5 (≈ 234 µM) |  | 0.8 | 49.8 ± 3.6 (≈ 201 µM) |  | 0.9 |  |  |  | 45.3 ± 7.8 (≈ 182 µM) | 62.1 ± 8.1 (≈ 250 µM) |  | 0.7 |  |  | 
14 | Cc1cc2oc(=O)c(C)c-2cc2c1CC[C@@H]2C [Compound 19, gweicurculactone] | 35.7 ± 5.8 (≈ 156 µM) |  | 2.0 | 31.2 ± 3.2 (≈ 137 µM) |  | 2.3 |  |  |  | 71.7 ± 6.1 (≈ 314 µM) | 38.3 ± 2.2 (≈ 168 µM) |  | 1.9 |  |  | 
15 | COc1cccc2c1C(=O)c1c(O)c3c(c(O)c1C2=O)C[C@@](O)(C(=O)CO)C[C@@H]3O[C@H]1C[C@H](N)[C@H](O)[C@H](C)O1 [doxorubicin, reference compound] |  |  |  | 0.1 (≈ 0.184 µM) |  |  | 0.2 ± 1 (≈ 0.368 µM) |  |  | 1.4 (≈ 2.58 µM) |  |  |  |  |  | 
16 | Hexane |  |  |  |  |  |  |  |  |  |  |  |  |  | high inhibitory activity | high inhibitory activity | low toxicity

Reference: PMC4121215, “Cytotoxic Constituents from the Rhizomes of Curcuma zedoaria” (The Scientific World Journal, 2014)
